Holding throughout (assay type): functional
For test [1], the system named is T47D. As to the kind of experiment: Ratio of inhibition of cell proliferation activity to that of caspase activation inducing apoptosis activity in human breast cancer T47D cell line.
Test [2] relates to NCI-H1299. The experiment in a line: Effective concentration against human non-small cell lung cancer H1299 cells inducing apoptosis activity was measured by using cell and caspase-based HTS assay.
The subject of test [3] is NCI-H1299. As to the kind of experiment: Growth inhibitory activity against human non-small cell lung cancer H1299 cells.
Test [4] deals with T47D. The experiment in a line: Growth inhibitory activity against human breast cancer T47D cell line.
Test [5] has as its system T47D. As to the kind of experiment: Effective concentration against human breast cancer T47D cell line inducing apoptosis activity was measured by cell and caspase-based HTS assay.
In test [6] the test system is NCI-H1299. As to the kind of experiment: Effective concentration against human non-small cell lung cancer H1299 cells inducing apoptosis, activity was measured by cell and caspase-based HTS assay.
The test system of test [7] is T47D. The experiment in a line: Effective concentration against human breast cancer T47D cell line apoptosis inducing activity was measured by using cell and caspase-based HTS assay.
Test [8] deals with Tubulin beta-4B chain (Homo sapiens, UniProt P68371). The experiment in a line: Inhibitory activity against tubulin using tubulin polymerization assay.
Sequence of Tubulin beta-4B chain (P68371 whole entry): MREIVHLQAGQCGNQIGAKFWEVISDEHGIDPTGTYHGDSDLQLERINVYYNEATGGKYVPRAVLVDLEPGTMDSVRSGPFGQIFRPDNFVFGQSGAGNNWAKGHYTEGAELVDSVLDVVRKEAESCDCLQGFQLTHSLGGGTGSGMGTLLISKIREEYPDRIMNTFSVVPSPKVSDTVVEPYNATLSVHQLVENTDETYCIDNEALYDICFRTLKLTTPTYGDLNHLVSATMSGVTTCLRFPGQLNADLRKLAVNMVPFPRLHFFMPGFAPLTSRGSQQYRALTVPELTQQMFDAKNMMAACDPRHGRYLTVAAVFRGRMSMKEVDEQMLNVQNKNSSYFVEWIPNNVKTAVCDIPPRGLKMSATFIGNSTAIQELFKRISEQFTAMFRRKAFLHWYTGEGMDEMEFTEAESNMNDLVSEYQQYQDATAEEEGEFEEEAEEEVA

The source of these data is ChEMBL document CHEMBL1140397, “Discovery of 4-aryl-4H-chromenes as a new series of apoptosis inducers using a cell- and caspase-based high-throughput screening assay. 2. Structure-activity relationships of the 7- and 5-, 6-, 8-positions” (Bioorg Med Chem Lett, 2005).

In general, EC50 refers to the concentration at which the effect is half-maximal. Read a low EC50 as greater potency. For orientation: GI50 means the concentration at which growth is held to half of that of the control. Read a high GI50 as less potent growth inhibition. Take `COc1cc(OC)c2c(c1)OC(N)=C(C#N)C2c1cc(OC)c2c(c1)OCO2` (stereo not given): the GI50/EC50 in test [1] came out at 1. Further, the concentration for a half-maximal effect (EC50) in test [2] and in test [5] was more than 10000 nM in each case. The concentration for 50% growth inhibition (GI50) in test [3] (Homo sapiens, NCI-H1299) was more than 10000 nM; in test [4], more than 10000 nM.
For the molecule `CCCCNc1ccc2c(c1)OC(N)=C(C#N)C2c1cccc(Cl)c1` (stereo not given), the EC50 in test [6] was 190 nM; in test [7], 120 nM.
For the molecule `COc1ccc2c(c1)OC(N)=C(C#N)C2c1cc(Br)c(OC)c(OC)c1` (stereo not given), the GI50/EC50 in test [1] came out at 0.47. The half-maximal effective concentration (EC50) came out at 34 nM in test [2] and 17 nM in test [7]. Moreover, the GI50 turned out to be 9 nM in test [3] (Homo sapiens, NCI-H1299) and 8 nM in test [4].
With `COc1ccc2c(c1)OC(N)=C(C#N)C2c1cccc(Br)c1` (stereo not given), the EC50 in test [6] was 95 nM; in test [7], 52 nM.
The corresponding values for `COc1ccc2c(c1)OC(N)=C(C#N)C2c1cccc(Cl)c1` (stereo not given) are 160 nM and 80 nM.
The matching figures for `COc1cc(OC)cc(C2C(C#N)=C(N)Oc3cc(OC)ccc32)c1` (stereo not given): 32 nM and 15 nM.
The corresponding values for `COc1ccc2c(c1)OC(N)=C(C#N)C2c1cccc([N+](=O)[O-])c1` (stereo not given) are 170 nM and 89 nM.
`CCNc1ccc2c(c1)OC(N)=C(C#N)C2c1cc(OC)c2c(c1)OCO2` (stereo not given): the results for the EC50 in test [2] and in test [5] were 400 nM and 330 nM, respectively.
`CCCCNc1ccc2c(c1)OC(N)=C(C#N)C2c1cccc([N+](=O)[O-])c1` (stereo not given): the EC50 in test [6] amounted to 170 nM; in test [7], 110 nM.
Turning to `CCNc1cc2c(cc1C)C(c1cc(OC)c3c(c1)OCO3)C(C#N)=C(N)O2` (stereo not given), the EC50 in test [2] worked out at 1400 nM; in test [5], 1100 nM.
Turning to `COc1cc(C2C(C#N)=C(N)Oc3cc(Cl)ccc32)cc(Br)c1OC` (stereo not given), the EC50 in test [2] stood at 290 nM; in test [7], 160 nM. Besides, the GI50 in test [3] (Homo sapiens, NCI-H1299) was 55 nM; in test [4], 64 nM.
Consider `CCOc1ccc2c(c1)OC(N)=C(C#N)C2c1cc(Br)c(OC)c(OC)c1` (stereo not given), for which the concentration for a half-maximal effect (EC50) worked out at 92 nM in test [6] and 64 nM in test [7].
As to `COc1cc(C2C(C#N)=C(N)Oc3cc(N4CCOCC4)ccc32)cc2c1OCO2` (stereo not given), the concentration giving a half-maximal response (EC50) in test [2] and in test [5] was more than 10000 nM each time.
As to `COc1cc(C2C(C#N)=C(N)Oc3cc(O)ccc32)cc(Br)c1OC` (stereo not given), in test [1], the GI50/EC50 was 6.1. The concentration for 50% growth inhibition (GI50) in test [3] (Homo sapiens, NCI-H1299) came out at 190 nM; in test [4], 800 nM. The concentration for a half-maximal effect (EC50) in test [6] turned out to be 210 nM; in test [7] it was 130 nM.
As to `COc1cc(C2C(C#N)=C(N)Oc3c2ccc(N)c3C)cc2c1OCO2` (stereo not given), the figures for the EC50 in test [2] and in test [7] were 770 nM and 310 nM, respectively. Besides, the concentration for 50% growth inhibition (GI50) is 860 nM in test [3] and 490 nM in test [3] (Homo sapiens, NCI-H1299).
On to `N#CC1=C(N)Oc2c(ccc(N)c2N)C1c1cccc(Br)c1` (stereo not given), for which the concentration giving a half-maximal response (EC50) was 230 nM in test [6] and 150 nM in test [7].
For the molecule `COc1cc(C2C(C#N)=C(N)Oc3c2ccc(O)c3O)cc(Br)c1OC` (stereo not given), the EC50 is 2500 nM in test [6] and 1700 nM in test [7].
The matching figures for `COc1ccc2c(c1)OC(N)=C(C#N)C2c1ccccc1` (stereo not given): 520 nM and 360 nM.
The matching figures for `COc1ccc2c(c1)OC(N)=C(C#N)C2c1cc(OC)c(OC)c(OC)c1` (stereo not given): 57 nM and 26 nM.
For the molecule `COc1ccc2c(c1)OC(N)=C(C#N)C2c1cc(OC)c2c(c1)OCO2` (stereo not given), the GI50/EC50 in test [1] stood at 1.6. The EC50 came out at 230 nM in test [2] and 160 nM in test [5]. Moreover, the GI50 worked out at 240 nM in test [3] (Homo sapiens, NCI-H1299) and 260 nM in test [4].
As for `CCCCNc1ccc2c(c1)OC(N)=C(C#N)C2c1cc(OC)c(OC)c(OC)c1` (stereo not given), the results for the concentration giving a half-maximal response (EC50) in test [6] and in test [7] were 110 nM and 49 nM, respectively.
The corresponding values for `COc1ccc2c(c1)OC(N)=C(C#N)C2c1cccnc1` (stereo not given) are 290 nM and 170 nM.
The matching figures for `N#CC1=C(N)Oc2c(ccc(N)c2N)C1c1cccc(C#N)c1` (stereo not given): 460 nM and 390 nM.
Regarding `COc1cc(C2C(C#N)=C(N)Oc3cc4c(cc32)OCO4)cc2c1OCO2` (stereo not given), the figures for the EC50 in test [2] and in test [7] were 270 nM and 210 nM, respectively.
Take `COc1cc(C2C(C#N)=C(N)Oc3c2ccc(C)c3C)cc(Br)c1OC` (stereo not given): the EC50 in test [6] was 87 nM; in test [7], 42 nM.
The corresponding values for `COc1cc(C2C(C#N)=C(N)Oc3c2ccc(N)c3N)cc(Br)c1O` (stereo not given) are 62 nM and 23 nM.
The corresponding values for `CCCCNc1ccc2c(c1)OC(N)=C(C#N)C2c1cc(OC)cc(OC)c1` (stereo not given) are 120 nM and 55 nM.
Regarding `COc1cc(C2C(C#N)=C(N)Oc3c2ccc(N)c3N)cc(I)c1OC` (stereo not given), the figures for the EC50 in test [6] and in test [7] were 100 nM and 49 nM, respectively.
The matching figures for `COc1cc(C2C(C#N)=C(N)Oc3c2ccc(N)c3N)cc(Cl)c1OC` (stereo not given): 58 nM and 24 nM.
On to `CCN(CC)c1ccc2c(c1)OC(N)=C(C#N)C2c1cc(OC)c2c(c1)OCO2` (stereo not given), for which the figures for the EC50 in test [2] and in test [5] were 530 nM and 480 nM, respectively.
Take `COc1cc(C2C(C#N)=C(N)Oc3cc(O)ccc32)cc2c1OCO2` (stereo not given): in test [1], the GI50/EC50 is reported as 1. Further, the EC50 was determined as 5600 nM in test [2] and 5800 nM in test [5]. The GI50 in test [3] (Homo sapiens, NCI-H1299) is 5500 nM; in test [4] it was 6080 nM.
`CCCCNc1ccc2c(c1)OC(N)=C(C#N)C2c1cccc(OC)c1` (stereo not given): the results for the EC50 in test [6] and in test [7] were 190 nM and 110 nM, respectively.
The matching figures for `COc1cc(C2C(C#N)=C(N)Oc3cc(Br)ccc32)cc(Br)c1OC` (stereo not given): 280 nM and 140 nM.
For `COc1cc(C2C(C#N)=C(N)Oc3c2ccc(N)c3N)cc(Br)c1OC` (stereo not given), the GI50/EC50 in test [1] stood at 4.4. The GI50 in test [3] (Homo sapiens, NCI-H1299) came to 31 nM; in test [4] it was 150 nM. Further, the EC50 in test [6] turned out to be 81 nM; in test [7] it was 34 nM.
In the case of `COc1cc(OC)cc(C2C(C#N)=C(N)Oc3c2ccc(N)c3N)c1` (stereo not given), the EC50 in test [6] came to 190 nM; in test [7] it was 92 nM.
In the case of `COc1cc2c(cc1OC)C(c1cc(OC)c3c(c1)OCO3)C(C#N)=C(N)O2` (stereo not given), the GI50/EC50 in test [1] stood at 1. The 50% effective concentration (EC50) in test [2] and in test [5] was more than 10000 nM throughout. The GI50 in test [3] (Homo sapiens, NCI-H1299) was more than 10000 nM; in test [4], more than 10000 nM.
Regarding `CCNc1ccc2c(c1)OC(N)=C(C#N)C2c1cc(Br)c(OC)c(OC)c1` (stereo not given), the EC50 stood at 27 nM in test [2] and 14 nM in test [7].
On to `COc1cc(C2C(C#N)=C(N)Oc3cc(Nc4ccccc4)ccc32)cc2c1OCO2` (stereo not given), for which the EC50 in test [2] and in test [5] was more than 10000 nM in each case.
For the molecule `COc1cccc(C2C(C#N)=C(N)Oc3cc(OC)ccc32)c1` (stereo not given), the values for the EC50 in test [6] and in test [7] were 89 nM and 52 nM, respectively.
In the case of `COc1cc(C2C(C#N)=C(N)Oc3cc(N(C)C)ccc32)cc2c1OCO2` (stereo not given), the EC50 in test [2] was determined as 93 nM; in test [5], 730 nM.
Take `COc1cc(C2C(C#N)=C(N)Oc3cc(N)ccc32)cc2c1OCO2` (stereo not given): the GI50/EC50 in test [1] was 2.1. Also, the EC50 in test [2] is 1700 nM; in test [5] it was 1200 nM. Moreover, the 50% growth inhibitory concentration (GI50) amounted to 1200 nM in test [3] (Homo sapiens, NCI-H1299) and 2400 nM in test [4].
`N#CC1=C(N)Oc2c(ccc(N)c2N)C1c1cccc([N+](=O)[O-])c1` (stereo not given): the half-maximal effective concentration (EC50) is 420 nM in test [6] and 390 nM in test [7].
Turning to `COc1cc(C2C(C#N)=C(N)Oc3c2ccc(O)c3N)cc(Br)c1OC` (stereo not given), the GI50/EC50 in test [1] was 2. In addition, the GI50 in test [3] (Homo sapiens, NCI-H1299) was determined as 110 nM; in test [4], 120 nM. For the same molecule, the EC50 in test [6] is 180 nM; in test [7] it was 61 nM.
In the case of `COc1cncc(C2C(C#N)=C(N)Oc3cc(OC)ccc32)c1` (stereo not given), the GI50/EC50 in test [1] was found to be 1.4. In addition, the GI50 in test [3] (Homo sapiens, NCI-H1299) is 72 nM; in test [4], 65 nM. Besides, the EC50 in test [6] was 100 nM; in test [7], 47 nM.
One may read the IC50 as the point on the concentration scale where inhibition reaches its midpoint. Low readings indicate greater potency, high ones weaker potency. Consider `COc1cc(C2C(C#N)=C(N)Oc3cc(N)ccc32)cc(Br)c1OC` (stereo not given), for which the GI50/EC50 in test [1] turned out to be 2.3. Moreover, the values for the EC50 in test [2] and in test [7] were 67 nM and 33 nM, respectively. In addition, the 50% growth inhibitory concentration (GI50) is 76 nM in test [3] (Homo sapiens, NCI-H1299) and 77 nM in test [4]. In test [8], the 50% inhibitory concentration (IC50) was less than 500 nM.
In the case of `COc1cc(C2C(C#N)=C(N)Oc3c2ccc(N)c3C)cc(Br)c1OC` (stereo not given), the EC50 in test [6] was 53 nM; in test [7], 26 nM.
